Measured values: patent publication US20070049593A1 (priority 2004, published 2007)
Structures can show the parent of a compound that is named as a salt.

biological target: T1, HCV polymerase (Hepatitis C virus genotype 1b, UniProt P26663); experiment: biochemical; parameters: species or system HCV BK strain; details: not given
T1 construct: a region encoding NS5B (J Virol 1991 March, 65(3), 1105-13, 544 amino acids after deletion of 47 amino acids on the C-terminal); 6xHis (C); made in house; host or cells: Escherichia coli
T1 sequence (P26663 2420-2963): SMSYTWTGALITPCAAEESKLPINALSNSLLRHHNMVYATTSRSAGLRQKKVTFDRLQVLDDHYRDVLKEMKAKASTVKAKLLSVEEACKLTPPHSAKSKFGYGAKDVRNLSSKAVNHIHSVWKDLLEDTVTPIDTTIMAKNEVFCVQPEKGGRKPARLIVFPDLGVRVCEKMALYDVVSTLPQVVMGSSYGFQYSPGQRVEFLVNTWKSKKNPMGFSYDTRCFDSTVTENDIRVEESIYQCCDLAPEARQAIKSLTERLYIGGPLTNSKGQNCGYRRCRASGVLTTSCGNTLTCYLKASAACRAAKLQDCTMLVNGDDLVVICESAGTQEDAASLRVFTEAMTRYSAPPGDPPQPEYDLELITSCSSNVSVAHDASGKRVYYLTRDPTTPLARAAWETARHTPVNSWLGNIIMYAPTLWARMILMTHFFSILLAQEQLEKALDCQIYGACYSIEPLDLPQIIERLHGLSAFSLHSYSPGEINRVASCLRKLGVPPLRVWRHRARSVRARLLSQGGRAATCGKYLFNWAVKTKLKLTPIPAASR
Outline: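 Recombinant HCV BK-strain NS5B (C-terminal 47 aa deleted, His6-tagged, E. coli), 0.5 μg/ml, run with 5 μg/ml in vitro-transcribed RNA template (polyU/3′X), ATP/GTP/CTP 50 μM, UTP 2 μM plus [3H]UTP, pH 7.5, 25° C, 90 min. TCA-precipitated RNA counted by scintillation; IC50 from activity with vs without compound.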

Row | Structure (SMILES) | IC50
1 | Cc1ccc2c(c1)N(CCN1CCC(CO)CC1)CCn1c-2c(C2CCCCC2)c2ccc(C(=O)O)cc21 [Example 1-443, 13-cyclohexyl-5-[2-(4-hydroxymethylpiperidin-1-yl)ethyl]-3-methyl-6,7-dihydro-5H-benzo[5,6][1,4]diazepino[7,1-a]indole-10-carboxylic acid dihydrochloride] | < 100 nM
2 | O=C(O)c1ccc2c(C3CCCCC3)c3n(c2c1)CCN(CCN1CCC[C@@H](CCOc2ccccc2)C1)c1ccccc1-3 [Example 1-444, 13-cyclohexyl-5-{2-[(S)-3-(2-phenoxyethyl)piperidin-1-yl]ethyl}-6,7-dihydro-5H-benzo[5,6][1,4]diazepino[7,1-a]indole-10-carboxylic acid dihydrochloride] | < 100 nM
3 | COCC[C@@H]1CCCN(CCN2CCn3c(c(C4CCCCC4)c4ccc(C(=O)O)cc43)-c3ccc(OC)cc32)C1 [Example 1-445, 13-cyclohexyl-3-methoxy-5-{2-[(S)-3-(2-methoxyethyl)piperidin-1-yl]ethyl}-6,7-dihydro-5H-benzo[5,6][1,4]diazepino[7,1-a]indole-10-carboxylic acid dihydrochloride] | < 100 nM
4 | CSc1ccc2c(c1)N(C)CCn1c-2c(C2CCCCC2)c2ccc(C(=O)NC3(C(=O)Nc4ccc(/C=C/C(=O)O)cc4)CCC3)cc21 [Example 1-450, (E)-3-[4-({1-[(13-cyclohexyl-5-methyl-3-methylsulfanyl-6,7-dihydro-5H-benzo[5,6][1,4]diazepino[7,1-a]indole-10-carbonyl)amino]cyclobutanecarbonyl}amino)phenyl]acrylic acid] | < 100 nM
5 | Cc1ccc2c(c1)N(CCN1CCCCC1)CCn1c-2c(C2CCCCC2)c2ccc(C(=O)O)c(Cl)c21 [Example 1-451, 9-chloro-13-cyclohexyl-3-methyl-5-[2-(piperidin-1-yl)ethyl]-6,7-dihydro-5H-benzo[5,6][1,4]diazepino[7,1-a]indole-10-carboxylic acid dihydrochloride] | < 100 nM
6 | Cc1ccc2c(c1)N(C)CCn1c-2c(C2CCCCC2)c2ccc(C(=O)O)c(Cl)c21 [Example 1-452, 9-chloro-13-cyclohexyl-3,5-dimethyl-6,7-dihydro-5H-benzo[5,6][1,4]diazepino[7,1-a]indole-10-carboxylic acid] | < 100 nM
7 | CCN1CCn2c(c(C3CCCCC3)c3ccc(C(=O)O)cc32)-c2ccc(OC)cc21 [Example 1-474, 13-cyclohexyl-5-ethyl-3-methoxy-6,7-dihydro-5H-benzo[5,6][1,4]diazepino[7,1-a]indole-10-carboxylic acid] | < 100 nM
8 | COc1ccc2c(c1)N(C(C)C)CCn1c-2c(C2CCCCC2)c2ccc(C(=O)O)cc21 [Example 1-475, 13-cyclohexyl-5-isopropyl-3-methoxy-6,7-dihydro-5H-benzo[5,6][1,4]diazepino[7,1-a]indole-10-carboxylic acid monohydrochloride] | < 100 nM
9 | Cc1ccc2c(c1)N(CC(=O)N1CCCOCC1)CCn1c-2c(C2CCCCC2)c2ccc(C(=O)O)cc21 [Example 1-476, sodium salt of 13-cyclohexyl-3-methyl-5-[2-(1,4-oxazepan-4-yl)-2-oxoethyl]-6,7-dihydro-5H-benzo[5,6][1,4]diazepino[7,1-a]indole-10-carboxylic acid] | < 100 nM
10 | CCN1CCn2c(c(C3CCCCC3)c3ccc(C(=O)NC4(C(=O)Nc5ccc(/C=C/C(=O)O)cc5)CCC4)cc32)-c2ccc(OC)cc21 [Example 1-477, (E)-3-[4-({1-[(13-cyclohexyl-5-ethyl-3-methoxy-6,7-dihydro-5H-benzo[5,6][1,4]diazepino[7,1-a]indole-10-carbonyl)amino]cyclobutanecarbonyl}amino)phenyl]acrylic acid] | < 100 nM
11 | COc1ccc2c(c1)N(C(C)C)CCn1c-2c(C2CCCCC2)c2ccc(C(=O)NC3(C(=O)Nc4ccc(/C=C/C(=O)O)cc4)CCC3)cc21 [Example 1-478, (E)-3-[4-({1-[(13-cyclohexyl-5-isopropyl-3-methoxy-6,7-dihydro-5H-benzo[5,6][1,4]diazepino[7,1-a]indole-10-carbonyl)amino]cyclobutanecarbonyl}amino)phenyl]acrylic acid] | < 100 nM
12 | COCCN1CCn2c(c(C3CCCCC3)c3ccc(C(=O)O)cc32)-c2ccc(OC)cc21 [Example 1-479, 13-cyclohexyl-3-methoxy-5-(2-methoxyethyl)-6,7-dihydro-5H-benzo[5,6][1,4]diazepino[7,1-a]indole-10-carboxylic acid] | < 100 nM
13 | COc1ccc2c(c1)N(CCOC(C)C)CCn1c-2c(C2CCCCC2)c2ccc(C(=O)O)cc21 [Example 1-480, 13-cyclohexyl-5-(2-isopropoxyethyl)-3-methoxy-6,7-dihydro-5H-benzo[5,6][1,4]diazepino[7,1-a]indole-10-carboxylic acid] | < 100 nM
14 | COCCN1CCn2c(c(C3CCCCC3)c3ccc(C(=O)NC4(C(=O)Nc5ccc(/C=C/C(=O)O)cc5)CCC4)cc32)-c2ccc(OC)cc21 [Example 1-481, (E)-3-{4-[(1-{[13-cyclohexyl-3-methoxy-5-(2-methoxyethyl)-6,7-dihydro-5H-benzo[5,6][1,4]diazepino[7,1-a]indole-10-carbonyl]amino}cyclobutanecarbonyl)amino]phenyl}acrylic acid] | < 100 nM
15 | COc1ccc2c(c1)N(CCOC(C)C)CCn1c-2c(C2CCCCC2)c2ccc(C(=O)NC3(C(=O)Nc4ccc(/C=C/C(=O)O)cc4)CCC3)cc21 [Example 1-482, (E)-3-{4-[(1-{[13-cyclohexyl-5-(2-isopropoxyethyl)-3-methoxy-6,7-dihydro-5H-benzo[5,6][1,4]diazepino[7,1-a]indole-10-carbonyl]amino}cyclobutanecarbonyl)amino]phenyl}acrylic acid] | < 100 nM
16 | COc1ccc2c(c1)N(CC(C)C)CCn1c-2c(C2CCCCC2)c2ccc(C(=O)O)cc21 [Example 1-483, 13-cyclohexyl-5-isobutyl-3-methoxy-6,7-dihydro-5H-benzo[5,6][1,4]diazepino[7,1-a]indole-10-carboxylic acid] | < 100 nM
17 | COc1ccc2c(c1)N(CC(C)C)CCn1c-2c(C2CCCCC2)c2ccc(C(=O)NC3(C(=O)Nc4ccc(/C=C/C(=O)O)cc4)CCC3)cc21 [Example 1-484, (E)-3-[4-({1-[(13-cyclohexyl-5-isobutyl-3-methoxy-6,7-dihydro-5H-benzo[5,6][1,4]diazepino[7,1-a]indole-10-carbonyl)amino]cyclobutanecarbonyl}amino)phenyl]acrylic acid] | < 100 nM
18 | O=C(O)c1ccc2c(C3CCCCC3)c3n(c2c1)CCN(CCN1CCC[C@H](COc2ccccc2)C1)c1ccccc1-3 [Example 1-485, 13-cyclohexyl-5-[2-((S)-3-phenoxymethylpiperidin-1-yl)ethyl]-6,7-dihydro-5H-benzo[5,6][1,4]diazepino[7,1-a]indole-10-carboxylic acid dihydrochloride] | < 100 nM
19 | O=C(O)c1ccc2c(C3CCCCCC3)c3n(c2c1)CCN(CCN1CCCCC1)c1cc(Cl)ccc1-3 [Example 1-486, 3-chloro-13-cycloheptyl-5-[2-(piperidin-1-yl)ethyl]-6,7-dihydro-5H-benzo[5,6][1,4]diazepino[7,1-a]indole-10-carboxylic acid] | < 100 nM
20 | Cc1ccc2c(c1)N(CCC13CCC(CC1)N3Cc1ccccc1)CCn1c-2c(C2CCCCC2)c2ccc(C(=O)O)cc21 [Example 1-487, 5-[2-(7-benzyl-7-azabicyclo[2.2.1]hept-1-yl)ethyl]-13-cyclohexyl-3-methyl-6,7-dihydro-5H-benzo[5,6][1,4]diazepino[7,1-a]indole-10-carboxylic acid] | < 100 nM
21 | Cc1ccc2c(c1)N(CCC13CCC(CC1)N3)CCn1c-2c(C2CCCCC2)c2ccc(C(=O)O)cc21 [Example 1-488, 5-[2-(7-azabicyclo[2.2.1]hept-1-yl)ethyl]-13-cyclohexyl-3-methyl-6,7-dihydro-5H-benzo[5,6][1,4]diazepino[7,1-a]indole-10-carboxylic acid monohydrochloride] | < 100 nM
22 | Cc1ccc2c(c1)N(CCC13CCC(CC1)N3CC(=O)O)CCn1c-2c(C2CCCCC2)c2ccc(C(=O)O)cc21 [Example 1-489, 5-[2-(7-carboxymethyl-7-azabicyclo[2.2.1]hept-1-yl)ethyl]-13-cyclohexyl-3-methyl-6,7-dihydro-5H-benzo[5,6][1,4]diazepino[7,1-a]indole-10-carboxylic acid] | < 100 nM
23 | N#Cc1ccc2c(c1)N(CCN1CCCCC1)CCn1c-2c(C2CCCCC2)c2ccc(C(=O)O)cc21 [Example 1-490, 3-cyano-13-cyclohexyl-5-[2-(piperidin-1-yl)ethyl]-6,7-dihydro-5H-benzo[5,6][1,4]diazepino[7,1-a]indole-10-carboxylic acid monohydrochloride] | < 100 nM
24 | NC(=O)c1ccc2c(c1)N(CCN1CCCCC1)CCn1c-2c(C2CCCCC2)c2ccc(C(=O)O)cc21 [Example 1-491, 3-carbamoyl-13-cyclohexyl-5-[2-(piperidin-1-yl)ethyl]-6,7-dihydro-5H-benzo[5,6][1,4]diazepino[7,1-a]indole-10-carboxylic acid monohydrochloride] | < 100 nM
25 | Cc1ccc2c(c1)N(CCC1CCCCC1)CCn1c-2c(C2CCCCC2)c2ccc(C(=O)O)cc21 [Example 1-492, 13-cyclohexyl-5-(2-cyclohexylethyl)-3-methyl-6,7-dihydro-5H-benzo[5,6][1,4]diazepino[7,1-a]indole-10-carboxylic acid] | < 100 nM

same assay, conditions: 25° C., 90 min; [5,6-3H]UTP incorporation into RNA; read-out: HCV polymerase inhibitory activity IC50

Row | Structure (SMILES) | IC50
26 | COC(=O)C(Cc1ccc(O)cc1)NC(=O)c1ccc2c(C3CCCCC3)c3n(c2c1)CCN(C)c1cc(C)ccc1-3 [Example 1-473, methyl (S)-2-[(13-cyclohexyl-3,5-dimethyl-6,7-dihydro-5H-benzo[5,6][1,4]diazepino[7,1-a]indole-10-carbonyl)amino]-3-(4-hydroxyphenyl)propionate] | < 100 nM
